Legend:
[1] = system: larvae of the mustard beetle (Phaedon cochleariae); assay: Phaedon cochleariae spray test (PHAECO); type: in vivo; settings: Chinese cabbage leaf discs, after 7 days
Outline: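 Kill of mustard beetle larvae is read as % mortality 7 days after spraying. Spray liquid: active compound in acetone plus dimethylformamide, brought up with water holding 1000 ppm alkylaryl polyglycol ether emulsifier and diluted further in emulsifier-water.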

[2] = system: green peach aphid (Myzus persicae); assay: Myzus persicae spray test (MYZUPE); type: in vivo; settings: Chinese cabbage leaf discs, after 6 days
Procedure: G. Myzus persicae-spray Test (MYZUPE)
Solvents: 78 parts by weight of acetone
• 1.5 parts by weight of dimethylformamide Emulsifier: alkylaryl polyglycol ether
To produce a suitable preparation of active compound, 1 part by weight of active compound is dissolved using the stated parts by weight of solvent and made up with water comprising an emulsifier concentration of 1000 ppm until the desired concentration is reached. To produce further test concentrations, the preparation is diluted with emulsifier-containing water.
Discs of Chinese cabbage leaves (Brassica pekinensis) infested by all stages of the green peach aphid (Myzus persicae) are sprayed with an active compound preparation of the desired concentration.
After 6 days, the efficacy in % is determined 100% here means that all of the aphids have been killed; 0% means that no aphids have been killed.

[3] = system: caterpillars of the armyworm (Spodoptera frugiperda); assay: Spodoptera frugiperda spray test (SPODFR); type: in vivo; settings: maize leaf discs, after 7 days
Outline: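 Percent kill read at day 7 on caterpillar-infested maize leaf discs. Discs were first sprayed with aqueous emulsifier-containing (1000 ppm) preparations made from acetone/dimethylformamide solutions, and dried. Scale: 0% none dead, 100% all dead.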

[4] = system: greenhouse red spider mite (Tetranychus urticae); assay: Tetranychus urticae spray test, OP-resistant (TETRUR); type: in vivo; settings: bean leaf discs, after 6 days
Outline: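 Percent kill, scored 6 days post-spray (0% = none dead, 100% = all dead), on Phaseolus vulgaris leaf discs infested with every life stage of the OP-resistant spider mite. Compound dissolved in acetone plus DMF, diluted to test concentration with emulsifier-containing water (1000 ppm).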

[5] = logP determination by HPLC on a reversed-phase column (C18), EEC Directive 79/831 Annex V.A8; type: physicochemical; settings: HPLC on reversed-phase column (C18), acetonitrile/water with formic acid, EEC Directive 79/831 Annex V.A8
Outline: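 Per EEC 79/831 Annex V.A8, values derive from HPLC retention at 2.0 ml/min and 55° C on a 50*4.6 C18 column. The 10→95% acetonitrile gradient (0.1%/0.09% formic acid) lasted 4.25 min plus a 1.25 min hold; mass detection was by MSD.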

[6] = system: L1 larvae of the Australian sheep blowfly (Lucilia cuprina); assay: Lucilia cuprina test (LUCICU); type: in vivo; settings: application rate 100 ppm; after 2 days
Outline: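 Percent mortality read at 2 days; 100% = all larvae killed, 0% = none. Test compound, predissolved in DMSO and water-diluted to the wanted level, was mixed into minced horsemeat holding roughly 20 first-instar larvae.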

[7] = system: adult houseflies (Musca domestica); assay: Musca domestica test (MUSCDO); type: in vivo; settings: application rate 100 ppm; after 2 days
Procedure: F. Musca domestica Test (MUSCDO)
Solvent: dimethyl sulphoxide
To produce a suitable preparation of active compound, 10 mg of active compound are mixed with 0.5 ml of dimethyl sulphoxide, and the concentrate is diluted with water to the desired concentration.
Vessels containing a sponge treated with sugar solution and the active compound preparation of the desired concentration are populated with 10 adult houseflies (Musca domestica).
After 2 days, the kill in % is determined. 100% means that all of the flies have been killed; 0% means that none of the flies have been killed.

[8] = system: adult cat fleas (Ctenocephalides felis); assay: Ctenocephalides felis oral test (CTECFE); type: in vivo; settings: application rate 100 ppm in citrated cattle blood; after 2 days
Outline: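 Mortality read at 2 days as percent of fleas killed. Compound predissolved in DMSO, diluted into citrated cattle blood and offered to roughly 20 unfed adult C. felis via parafilm membrane feeder.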

[9] = system: adult dog ticks (Rhipicephalus sanguineus); assay: Rhipicephalus sanguineus in vitro contact test with adult brown dog ticks (T2); settings: after 48 h
Outline: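 Acetone solutions coated onto test tube walls and floor, giving 5 μg/cm^2 at 900 ppm. Five to ten adult ticks held per tube in the dark at room temperature for 48 h, then heated at 45-50° C for up to 5 min; efficacy is the percentage of dead or moribund ticks unable to climb away.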

[10] = system: engorged adult female cattle ticks (Boophilus microplus); assay: Boophilus microplus injection test (BOOPMI Inj); type: in vivo; settings: application rate 20 μg/animal; injection into abdomen; assessed after 7 days
Outline: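 Efficacy is read at 7 days as fertile egg laying (100% = no fertile eggs laid; 0% = all eggs fertile), with eggs of unclear fertility stored until larvae hatch at about 42 days. Five engorged adult females per dose each receive an abdominal injection of 1 μl compound dissolved in DMSO.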

[11] = system: adult cat fleas (Ctenocephalides felis); assay: Ctenocephalides felis in vitro contact test with adult cat fleas (T1); settings: application rate 5 μg/cm^2; after 48 h
Outline: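 Adult cat fleas (Ctenocephalides felis), 5-10 per tube, were exposed to the inner surface of 25 ml test tubes coated with compound in acetone. Tubes were incubated lying flat under ambient conditions. Efficacy was then read by standing tubes upright and knocking the fleas to the floor. Fleas that stayed motionless or moved uncoordinatedly counted as dead or moribund, where 100% means all fleas dead or moribund and 0% means none harmed.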

Compound	efficacy in % ([1]; application rate 500 g/ha) [%]	efficacy in % ([2]; application rate 500 g/ha) [%]	efficacy in % ([3]; application rate 500 g/ha) [%]	efficacy in % ([4]; application rate 500 g/ha) [%]	logP [5]	efficacy in % ([1]; application rate 100 g/ha) [%]	efficacy in % ([2]; application rate 100 g/ha) [%]	efficacy in % ([3]; application rate 100 g/ha) [%]	efficacy in % ([4]; application rate 100 g/ha) [%]	efficacy (kill in %) [6] [%]	efficacy (kill in %) [7] [%]	efficacy (kill in %) [8] [%]	efficacy (dead or moribund ticks) ([9]; application rate 1 μg/cm^2) [%]	efficacy (laying of fertile eggs) [10] [%]	efficacy (dead or moribund fleas) [11] [%]	efficacy (dead or moribund ticks) ([9]; application rate 5 μg/cm^2) [%]
CCO[C@@H]1C[C@H]1NC(=O)c1cc(-c2cnn(-c3c(C(F)(F)F)c(C(F)(F)C(F)(F)F)nn3C)c2)ccc1Cl [Ic-180]	100	90	100	100	3.99											
Cn1nc(C(F)(F)F)c(C(F)(F)F)c1-n1cc(-c2ccc(Cl)c(C(=O)NC3(C#N)CC3)c2)cn1 [Ic-127]					3.3	100	100	100	100							
CSc1ccc(-c2cnn(-c3c(C(F)(F)F)c(C(F)(F)C(F)(F)F)nn3C)c2)cc1C(=O)NC1CC1 [Ic-182]					3.81	100	100	100	90							
COc1ccc(-c2cnn(-c3c(C(F)(F)F)c(C(F)(F)C(F)(F)F)nn3C)c2)cc1C(=O)NC1CC1 [Ic-68]					3.86	100		83	100	100	80	100	100	100	100	
Cn1nc(C(F)(F)C(F)(F)F)c(C(F)(F)F)c1-n1cc(-c2ccc(Cl)c(C(=O)Nc3ccc(Cl)cc3)c2)cn1 [Ic-25]					4.93	100		100		100	90	95	100	100		100
Cn1nc(C(F)(F)C(F)(F)F)c(C(F)(F)F)c1-n1cc(-c2ccc(Cl)c(C(=O)NC3CC(S(C)(=O)=O)C3)c2)cn1 (stereo not drawn) [Ic-122]					3.24	100	90	100	100							
COc1ccc(-c2cnn(-c3c(C(F)(F)F)c(C(F)(F)C(F)(F)F)nn3C)c2)cc1C(=O)NC1(C#N)CC1 [Ic-67]					3.77	100			100	100	95	100	80	100		
Cn1nc(C(F)(F)C(F)(F)F)c(C=O)c1-n1cc(-c2ccc(Cl)c(C(=O)NC3(C#N)CC3)c2)cn1 [Ic-121]					3.09	100	100		100							
Cn1nc(C(F)(F)C(F)(F)F)c(C(F)(F)F)c1-n1cc(-c2cc(C(=O)NC3CC3)cc(C(F)(F)F)c2)cn1 [Ic-59]	100		100						90	100	100	100	100	100		
Cn1nc(C(F)(F)C(F)(F)F)c(C(F)(F)F)c1-n1cc(-c2cc(C(=O)NC3CC3)ccc2Cl)cn1 [Ic-46]	100		100							100	100	100	100	100		
